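These data come from cells grown in 96-well plates and exposed to compound for 48 hours at five concentrations. Here, GI50 denotes the concentration required for 50% inhibition of growth.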 Activity calls are given as the source filed them. Rule as the data show it: active = GI50 up to about 1.1 µM and inactive = higher.
Key:
Assay in all cases: DTP human tumour cell line panel, 48 h
BT-549 = tested on: BT-549
HT-29 = tested on: HT-29
MCF7 = tested on: MCF7
MDA-N = tested on: MDA-N
DU-145 = tested on: DU-145
LOX IMVI = tested on: LOX IMVI
SR = tested on: SR
UACC-62 = tested on: UACC-62
MDA-MB-231 = tested on: MDA-MB-231
HL-60 = tested on: HL-60
MOLT-4 = tested on: MOLT-4
UACC-257 = tested on: UACC-257
HOP-92 = tested on: HOP-92
SK-OV-3 = tested on: SK-OV-3
HOP-62 = tested on: HOP-62
RPMI-8226 = tested on: RPMI-8226
NCI-H23 = tested on: NCI-H23
NCI-H460 = tested on: NCI-H460
SNB-75 = tested on: SNB-75

Compound	GI50 (BT-549)	GI50 (HT-29)	GI50 (MCF7)	GI50 (MDA-N)	GI50 (DU-145)	GI50 (LOX IMVI)	GI50 (SR)	GI50 (UACC-62)	GI50 (MDA-MB-231)	GI50 (HL-60)	GI50 (MOLT-4)	GI50 (UACC-257)	GI50 (HOP-92)	GI50 (SK-OV-3)	GI50 (HOP-62)	GI50 (RPMI-8226)	GI50 (NCI-H23)	GI50 (NCI-H460)	GI50 (SNB-75)
Cc1c(C)c2c(c(N)c1C#N)C(=O)N(Cc1ccc(S(N)(=O)=O)cc1)C2=O	19.4 µM (inactive)	> 100 µM (inactive)	> 75 µM (inactive)	> 100 µM (inactive)	32.1 µM (inactive)	64.6 µM (inactive)	> 100 µM (inactive)	> 100 µM (inactive)	19.7 µM (inactive)	> 100 µM (inactive)	> 100 µM (inactive)	> 100 µM (inactive)	13.6 µM (inactive)	4.43 µM (inactive)	4.07 µM (inactive)	> 100 µM (inactive)	18.9 µM (inactive)	> 100 µM (inactive)	> 35.9 µM (inactive)
CC(C)OP(=O)(OC(C)C)/C(C#N)=C/c1ccco1	> 100 µM (inactive)	> 100 µM (inactive)	> 100 µM (inactive)	> 100 µM (inactive)	> 100 µM (inactive)	> 100 µM (inactive)	> 100 µM (inactive)	> 100 µM (inactive)	> 100 µM (inactive)	> 100 µM (inactive)	> 100 µM (inactive)	> 100 µM (inactive)	> 100 µM (inactive)	> 100 µM (inactive)	> 100 µM (inactive)	> 100 µM (inactive)	> 100 µM (inactive)	> 100 µM (inactive)	> 100 µM (inactive)
O=[N+]([O-])c1ccc(Cl)c(/C=N/C23CC4CC(CC(C4)C2)C3)c1	> 10 µM (inactive)	> 10 µM (inactive)	3.08 µM (inactive)	> 8.13 µM (inactive)	> 10 µM (inactive)	> 9.12 µM (inactive)	4.1 µM (inactive)	> 10 µM (inactive)	> 10 µM (inactive)	2.05 µM (inactive)	5.18 µM (inactive)	> 10 µM (inactive)	> 10 µM (inactive)	> 10 µM (inactive)	> 10 µM (inactive)	> 6.93 µM (inactive)	> 10 µM (inactive)	> 10 µM (inactive)	> 10 µM (inactive)
COc1ccc2nc3ccc(OC)cc3c(SCCCl)c2c1	51.4 µM (inactive)	8.28 µM (inactive)	2 µM (inactive)	> 50.6 µM (inactive)	21 µM (inactive)	5.98 µM (inactive)	4.8 µM (inactive)	19.5 µM (inactive)	18.8 µM (inactive)	3.28 µM (inactive)	2.79 µM (inactive)	> 46.1 µM (inactive)	21.6 µM (inactive)	> 74 µM (inactive)	18.1 µM (inactive)	2.95 µM (inactive)	16 µM (inactive)	33.9 µM (inactive)	13.7 µM (inactive)
CCOC(=O)/C=C\C(C#N)(C#N)/N=C/c1ccsc1	5.42 µM (inactive)	11.1 µM (inactive)	2.51 µM (inactive)	8.91 µM (inactive)	16.5 µM (inactive)	4.06 µM (inactive)	1.04 µM (active)	17 µM (inactive)	16.3 µM (inactive)	2 µM (inactive)	1.21 µM (inactive)	6.81 µM (inactive)	2.05 µM (inactive)	20.8 µM (inactive)	19.4 µM (inactive)	1.33 µM (inactive)	9.68 µM (inactive)	20.5 µM (inactive)	13 µM (inactive)
COC1=CC(=O)c2c(c(-c3nc(C)cs3)cn2C)C1=O	3.97 µM (inactive)	4.98 µM (inactive)	2.62 µM (inactive)	0.931 µM (active)	3.76 µM (inactive)	0.804 µM (active)	4.95 µM (inactive)	2.99 µM (inactive)	15.7 µM (inactive)	1.46 µM (inactive)	15.2 µM (inactive)	1.82 µM (inactive)	14.9 µM (inactive)	41.2 µM (inactive)	3.05 µM (inactive)	2.52 µM (inactive)	2.25 µM (inactive)	1.25 µM (inactive)	1.75 µM (inactive)
